Laboratory results: patent EP1840211A1, “Pyranosone dehydratase from phanerochaete chrysosporium” (DANISCO A/S, priority 2001, dated 2003)
Converted amounts (≈) assume the structure as drawn.

Columns and labels:
[1] = target: T1, pyranosone dehydratase (PD) (Phanerodontia chrysosporium, UniProt P84193); assay: Conversion of AF or glucosone by PD, monitored at 226nm; format: biochemical, Phanerochaete chrysosporium; conditions: for OD226nm: 22°C, 5.5 hours
T1 construct: from tissue; host or cells: Phanerochaete chrysosporium (enzyme purified from the fungus' cell-free extract)
T1 sequence (P84193 8-900 limits assumed): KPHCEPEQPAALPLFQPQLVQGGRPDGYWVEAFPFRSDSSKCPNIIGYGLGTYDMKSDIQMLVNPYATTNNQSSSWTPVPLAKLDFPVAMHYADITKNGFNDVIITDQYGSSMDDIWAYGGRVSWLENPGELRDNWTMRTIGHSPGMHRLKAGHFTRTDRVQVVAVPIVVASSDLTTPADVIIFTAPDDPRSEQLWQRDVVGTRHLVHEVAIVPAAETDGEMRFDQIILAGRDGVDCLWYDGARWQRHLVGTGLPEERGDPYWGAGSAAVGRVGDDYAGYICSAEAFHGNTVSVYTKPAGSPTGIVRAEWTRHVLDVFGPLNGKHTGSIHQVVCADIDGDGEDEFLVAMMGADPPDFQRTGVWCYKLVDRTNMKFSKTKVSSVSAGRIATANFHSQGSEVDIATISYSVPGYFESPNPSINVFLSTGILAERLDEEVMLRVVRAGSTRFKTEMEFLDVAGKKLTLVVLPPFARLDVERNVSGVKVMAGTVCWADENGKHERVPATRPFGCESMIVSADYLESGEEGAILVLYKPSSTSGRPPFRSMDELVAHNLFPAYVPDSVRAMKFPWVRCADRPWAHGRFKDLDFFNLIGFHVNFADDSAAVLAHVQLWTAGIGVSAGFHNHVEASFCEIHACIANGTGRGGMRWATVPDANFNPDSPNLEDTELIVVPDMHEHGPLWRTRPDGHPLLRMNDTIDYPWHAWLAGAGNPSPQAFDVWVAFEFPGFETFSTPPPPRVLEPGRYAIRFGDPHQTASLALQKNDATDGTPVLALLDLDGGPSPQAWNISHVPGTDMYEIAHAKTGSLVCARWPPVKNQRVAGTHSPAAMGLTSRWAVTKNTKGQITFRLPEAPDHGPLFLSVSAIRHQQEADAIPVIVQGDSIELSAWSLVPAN
Experimental: The reaction system consisted of AF or glucosone 1-15µl, 25µl sodium phosphate buffer (6.5. 0.1M), water, 1.4µl PD to a final volume of 200µl. The reaction was performed at 22°C for 5.5 hours. The formation of microthecin from AF and cortalcerone from glucosone were monitorered at 226nm.

sugar beet seeds = assay: Laboratory germination of pelleted sugar beet seeds; format: in vivo; conditions: result in words
Aphanomyces = assay: Field emergence trial (Trial FEHCP034 Aphanomyces); format: in vivo, sugar beet; conditions: pellets containing the substance, result in words
Excerpt: Based on these findings, the efficiency of microthecin was further investigated in a field emergence trial. The trial was sown relatively late giving it a higher chance for presence of the pathogen Aphanomyces in the trial field.
Seeds were pelleted with standard P1 pelleting mass with (1,2) or without (7,8)Thiram.
Inner coating: 0,3gai/U microthecin as a 0,5% solution in water or 14,7gai/U Hymexazol. 60gai/U Imidacloprid. Standard metallic green seed cover film.
The following combinations were included in the trial: R F0 Without fungicides R FT With Thiram (in pellet) R FH With Hymexazol R FM With Microthecin R P1 STD With Thiram (in pellet) + Hymexazol R FTM With Thiram (in pellet) + Microthecin Trial place Bukkehave, DK. (4 reps, 200 seeds/plot) Trial sown 21.05.2002 1. Count 28.05.2002 (speed) 2. Count 29.05.2002 (speed) 3. Count 24.06.2002 (final)

Aphanomyces cochlioides [2] = assay: Agar plate inhibition zone test (PDA medium); format: cell-based; conditions: judged after 3-4 days of growth, read-out: minimum inhibition concentration (mic)
Experimental: (§1) A circular plug (diameter 10 mm) of fresh mycelium was placed at the centre on a petri-dish (diameter 9 cm) containing PDA medium. (PDA= Potato dextrose agar Difco no. 213400). Wells with a diameter of 5 mm were cut along the periphery of the agar plate. In each well were placed 50 µl of a test solution. Alternatively, 20 µl of each test solution were placed directly on the agar along the periphery of the plate. Also, 50µl of each test solution were placed directly on top of the fungal mycelium plug.
(§2) The agar plates were placed at room temperature in daylight, but protected from direct sunlight.
(§3) The reaction (inhibition zones) of the fungi to the test substance was judged as follows: Rhizoctonia solani: after 2-3 days of growth Pythium ultimum: after 1-2 days of growth Aphanomyces cochlioides: after 3-4 days of growth Cercospora beticola after 3-4 weeks of growth

Cercospora beticola = assay: Agar plate inhibition zone test (PDA medium); format: cell-based; conditions: judged after 3-4 weeks of growth, read-out: minimum inhibition concentration (mic)
Experimental: as §1, §2, §3

Pythium ultimum = assay: Agar plate inhibition zone test (PDA medium); format: cell-based; conditions: Globisporangium ultimum; judged after 1-2 days of growth; read-out: minimum inhibition concentration (mic)
Experimental: as §1, §2, §3

Rhizoctonia solani = assay: Agar plate inhibition zone test (PDA medium); format: cell-based; conditions: judged after 2-3 days of growth, read-out: minimum inhibition concentration (mic)
Experimental: as §1, §2, §3

Aphanomyces cochlioides [3] = assay: Screening for growth inhibition on agar-plates (Example 4); format: cell-based; conditions: very low concentrations; in wells on PDA-agar plates, 3-5 days
Experimental: The effect of microthecin on the plant pathogenic fungi Pythium ultimum, Rhizoctonia solani and Aphanomyces cochlioides in vitro was investigated by screening for growth inhibition of the pathogens on agar-plates (Figures 6, 7, 8).
(§4) In each case, microthecin was dissolved in water and placed in wells in the periphery. An agar block containing the pathogen was placed in the centre. The pathogens were allowed to grow out on the PDA-agar plates for 3-5 days.

B. Pumilus DS96.734 = assay: Similar growth tests with other microorganisms (Example 4); format: cell-based
Experimental: as §4

B. megaterium DS98.124 = assay: as above; format: cell-based
Experimental: as §4

Cercospora = assay: as above; format: cell-based
Experimental: as §4

P. fluorescens DS96.578 = assay: as above; format: cell-based
Experimental: as §4

P. mendocina DS98.124 = assay: as above; format: cell-based
Experimental: as §4

[4] = final substrate concentration 13.7 µg/ml reaction mixture
[5] = final substrate concentration 27.4 µg/ml reaction mixture
[6] = final substrate concentration 41.1 µg/ml reaction mixture
[7] = final substrate concentration 68.4 µg/ml reaction mixture
[8] = final substrate concentration 95.8 µg/ml reaction mixture
[9] = final substrate concentration 137 µg/ml reaction mixture
[10] = final substrate concentration 205 µg/ml reaction mixture

| SMILES | OD226nm [1, 4] | OD226nm [1, 5] | OD226nm [1, 6] | OD226nm [1, 7] | OD226nm [1, 8] | OD226nm [1, 9] | OD226nm [1, 10] | speed of germination (Aphanomyces) | other results |
| --- | --- | --- | --- | --- | --- | --- | --- | --- | --- |
| O=C1CO[C@H](CO)[C@@H](O)[C@@H]1O [AF, 1,5-anhydro-D-fructose] | 0.308 | 0.534 | 0.76 | 1.246 | 1.764 | 2.43 | 2.943 | – | Vmax higher with AF than with glucosone ([1]; ratio AF vs glucosone as PD substrate): around 4.7 times |
| O=CC(=O)[C@@H](O)[C@H](O)[C@H](O)CO [Glucosone, D-arabino-hexos-2-ulose] | 0.069 | 0.104 | 0.141 | 0.238 | 0.323 | 0.484 | 0.634 | – | – |
| Cc1cc(O)no1 [Hymexazol, reference compound] | – | – | – | – | – | – | – | relatively slow | 4d>15mm germination (sugar beet seeds): low |
| O=C1C=CCOC1(O)CO (stereo not drawn) [microthecin] | – | – | – | – | – | – | – | comparable with pellets only containing Thiram | MIC (Aphanomyces cochlioides [2]): 1200 µg/mL (≈ 8.33 mM); MIC (Cercospora beticola): 2400 µg/mL (≈ 16.7 mM); MIC (Pythium ultimum): 480 µg/mL (≈ 3.33 mM); MIC (Rhizoctonia solani): 240 µg/mL (≈ 1.67 mM); growth of Aphanomyces (Aphanomyces cochlioides [3]): able to reduce the growth; effect on the growth (B. Pumilus DS96.734): no effect; effect on the growth (B. megaterium DS98.124): no effect; effect on Cercospora (Cercospora): no effect; effect on growth (P. fluorescens DS96.578): slightly affected; effect on growth (P. mendocina DS98.124): slightly affected; speed of laboratory germination (4d) (sugar beet seeds; inclusion in the pellet): decreases the speed of laboratory germination; final germination (Aphanomyces): high final germination |
